According to patent US20140314904A1, “PRE-SLAUGHTER DIET INCLUDING METHIONINE” (ADISSEO FRANCE S.A.S., priority 2011, published 2014):

Key:
slaughter pigs [1] = experiment: Storage loss of pork chops after display period; format: in vivo, pig; details: 7 days at 2° C., 1.1% total methionine for 7 days before slaughter, LS mean ± SEM
Excerpt: Twenty-one slaughter pigs ([Yorkshire×Swedish Landrace]×Hampshire) were raised on a commercial diet. Pigs were randomly assigned to one of three groups (n=7). The groups represented three feeding strategies, namely a Control group which received a standardized diet comprising 0.27% total methionine, and both a DLM and HMTBA group, receiving the same diet as the Control group throughout the feeding period, apart from the fact that they were fed a higher level of methionine (1.1% total methionine) during a seven day finishing period immediately prior to slaughter. The supplements were given in two forms, either as D L-methionine (DLM) or DL-2-hydroxy-4-methylthiobutanoic acid (HMTBA).
Pigs were slaughtered at a commercial slaughter house in Sweden after a resting time of 5 hours. At 45 minutes post mortem, pH (Knick portamess 751 pH-meter with an Ingold LOT glass electrode, Tech Instrumentering ApS, Denmark) and temperature (digital thermometer, Weber, Stephen Nordic, Denmark) were measured in the m. Longissimus dorsi (LD) at the level of the 10th rib. At 48 hours post mortem, the entire back was dissected from the carcass and transported under controlled conditions to the University of Copenhagen for further measurements.
Pork chops were cut perpendicular to the long axis of each LD muscle. Six 3 cm thick pork chops was sliced from each LD. Three were vacuum packed and three were packed in a high-oxygen modified atmosphere. The chops were placed in plastic trays (M71-43A white/PS; 195×144×43 mm in dimension; Frch Plast, Denmark) and placed in vacuum bags (EM-628862; O2 transmission rate=40-50 cm^3/m^2/24 h/bar, CO2 transmission rate=150 cm^3/m^2/24 h/bar, water-vapour transmission rate=2.6 g/m^2/24 h; LogiCon Nordic A/S, Denmark). The ambient air was removed from all vacuum bags using a vacuum machine (type, manufacturer, country). The bags intended for […] were first filled with a gas mixture (80% oxygen/20% carbon dioxide) before being sealed completely, whereas the bags intended for MAP were only partially sealed. […] (until 9 days post mortem). The gas composition was checked (CheckMate 9900, PBI Dansensor, Denmark) before packaging and again prior to opening, at the end of the simulated display period in order to check for leakage. The oxygen-enriched environment was well maintained (83.4%) throughout the display period for all MA packages.
Storage loss was determined as the weight loss percentage at the end of the display period (9 days post mortem) relative to the weight at the day of packaging (two days post mortem). The cooking loss was determined as the weight loss percentage between the pork chops before and after cooking. The results are given as the mean of the three pork chops in each meat pack.

slaughter pigs [2] = experiment: Free protein thiol (protein oxidation, Ellman's reagent); format: in vivo, pig; details: for Level of free thiol (protein oxidation): 7 days at 2° C., LS mean ± SEM; for Decline of level of free thiol from storage without oxygen to high-oxygen MAP: vacuum versus MAP
Procedure: In Example 1 twenty-one pigs were randomly assigned to one of three feeding groups (n=7). The control group received a standardized diet only. The DLM and HMTBA groups received the standardized diet plus a high-methionine supplement (either DLM (i.e. […] At 48 h post mortem, 3 cm thick pork chops were either vacuum packed or sealed in a modified atmosphere (MA; 80% O2) and stored for an additional 7 days at 2° C. Instrumental hardness was measured using the Warner-Bratzler shear force (WBSF; Newton) method. Protein oxidation was measured as the loss of free thiol groups in proteins (nmol thiol per mg protein) using Ellman's reagent. Lipid oxidation was measured as the increase in 2-thiobarbituric acid reactive substances (TBARS; mg malondialdehyde per kg meat). Twenty-one slaughter pigs ([Yorkshire×Swedish Landrace]×Hampshire) were raised on a commercial diet. Pigs were randomly assigned to one of three groups (n=7). […] Pork chops were cut perpendicular to the long axis of each LD muscle. Six 3 cm thick pork chops was sliced from each LD. Three were vacuum packed and three were packed in a high-oxygen modified atmosphere. The chops were placed in plastic trays ([…]-43A white/PS; 195×144×43 mm in dimension; Frch Plast, Denmark) and placed in vacuum bags (EM-628862; […] The ambient air was removed from all vacuum bags using a vacuum machine (type, manufacturer, country). […] (until 9 days post mortem). The gas composition was checked (CheckMate 9900, PBI Dansensor, Denmark) before packaging and again prior to opening, at the end of the simulated display period in order to check for leakage. The oxygen-enriched environment was well maintained (83.4%) throughout the display period for all MA packages. […] In brief, the frozen pork samples were partially thawed at chill storage temperature for 30 minutes. Fat and connective tissue was removed and 1.0 g of lean meat was homogenised in 25 ml of 5.0% SDS (sodium dodecyl sulphate) in 0.10 M Tris ([…]) buffer, pH 8.0 using an Ultra Turrax (Ultra Turrax T-25, Janke & Kunkel IKA-Labortechnik, Germany). The homogenates were placed in a water bath at 80° C. for 30 minutes, and subsequently cooled and filtered. The protein concentration was determined spectrophotometrically (Helios Omega Single Beam UV-VIS, Fisher Scientific Biotech Line, Denmark) at a wavelength of 280 nm using a standard curve prepared from bovine serum albumin (BSA). […] Filtrate (25 μl), Tris buffer (100 μl) and DTNB (25 μl) were added to wells in a 96 well microtiter plate. The absorbance at 410 nm was measured before addition of DTNB (ABS410meat) and after reaction with DTNB (ABS410meat+DTNB). In addition, the absorbance of a blank solution (25 μl 5% SDS dissolved in 100 mM Tris buffer and 100 μl 0.10 M Tris buffer) was likewise measured at 410 nm. After addition of DTNB, the microtiter plate was stored in the dark and the absorbance was measured exactly 30 minutes later. The absorbance corresponding to the thiol concentration in the sample was CorrABS410=ABS410meat+DTNB-ABS410meat-ABS410blank. […] The concentration of free thiol groups was determined as nmol thiol per mg protein. Duplicate homogenates, and triplicate measurements on each homogenate, were made for each meat sample and the mean values were used for further statistical analysis.

SMILES: CSCCC(N)C(=O)O (racemic) [DLM, DL-methionine]
- Storage loss (slaughter pigs [1]; MAP (80% O2 + 20% CO2)): 9.34 ± 0.83 ^A g
- Storage loss (slaughter pigs [1]; Vacuum): 4.56 ± 0.89 ^B g
- Level of free thiol (protein oxidation) (slaughter pigs [2]; MAP (80% O2 + 20% CO2)): 56.27 ± 1.13 ^B nmol thiol/mg protein
- Level of free thiol (protein oxidation) (slaughter pigs [2]; Vacuum): 62.16 ± 1.19 ^A nmol thiol/mg protein
- Decline of level of free thiol from storage without oxygen to high-oxygen MAP (slaughter pigs [2]): 6.0 units

SMILES: CSCCC(O)C(=O)O (racemic) [HMTBA, 2-hydroxy-4-(methylthio) butanoic acid]
- Storage loss (slaughter pigs [1]; MAP (80% O2 + 20% CO2)): 6.37 ± 0.83 ^A, B g
- Storage loss (slaughter pigs [1]; Vacuum): 4.63 ± 0.83 ^B g
- Level of free thiol (protein oxidation) (slaughter pigs [2]; MAP (80% O2 + 20% CO2)): 59.15 ± 1.13 ^A, B nmol thiol/mg protein
- Level of free thiol (protein oxidation) (slaughter pigs [2]; Vacuum): 62.60 ± 1.13 ^A nmol thiol/mg protein
- Decline of level of free thiol from storage without oxygen to high-oxygen MAP (slaughter pigs [2]): 3.5 units
